Measurements: ChEMBL document CHEMBL5137024, “Discovery of novel coumarin-indole derivatives as tubulin polymerization inhibitors with potent anti-gastric cancer activities” (Eur J Med Chem, 2022)
The source made the active and inactive calls. No cut-off for these calls is given here.

What was measured:
MGC-803 [1] = experiment: Antiproliferative activity against human MGC-803 cells assessed as reduction in cell viability incubated for 48 hrs by MTT assay; assay type: functional, cell-based
EC9706 = experiment: Antiproliferative activity against human EC9706 cells assessed as reduction in cell viability incubated for 48 hrs by MTT assay; assay type: functional, cell-based; details: EC9706, 48 h
HGC-27 [2] = experiment: Induction of apoptosis in human HGC-27 cells assessed as increase in cleavage caspase 3 level; assay type: functional, cell-based; details: dose 10-30 nM, DDE = dose-dependent effect
MGC-803 [3] = experiment: Induction of DNA damage in human MGC-803 cells by comet assay; assay type: functional, cell-based; details: dose 5-15 nM, DDE = dose-dependent effect
[4] = Induction of mitochondria mediated intrinsic apoptosis in human MGC-803 cells assessed as early apoptotic cells at 15 nM measured after 48 hrs by flow cytometry analysis (Rvb= 1.6%); assay type: functional
[5] = Induction of mitochondria mediated intrinsic apoptosis in human MGC-803 cells assessed as early apoptotic cells at 10 nM measured after 48 hrs by flow cytometry analysis (Rvb= 1.6%); assay type: functional
Mus musculus [6] = experiment: Downregulation of ERK1/2 phosphorylation in tumor tissue of BALB/c nude mouse xenografted with human MGC-803 cells at 15 to 30 mg/kg, ip administered once daily for 21 days by Western blotting analysis; assay type: functional, organism-based; details: dose 15-30 mg/kg, time 21.0 day
[7] = target: c-Jun N-terminal kinase, JNK (Homo sapiens) (UniProt P45983+P53779+P45984); experiment: Inhibition of JNK signalling pathway in human HGC-27 cells assessed as reduction in JNK phosphorylation at 10 to 30 nM incubated for 48 hrs; assay type: cell-based; details: dose 10-30 nM
MGC-803 [8] = experiment: Downregulation of Wee1 expression in human MGC-803 cells at 5 to 15 nM incubated for 48 hrs; assay type: functional, cell-based; details: dose 5-15 nM
Mus musculus [9] = experiment: Downregulation of JNK phosphorylation in tumor tissue of BALB/c nude mouse xenografted with human MGC-803 cells at 15 to 30 mg/kg, ip administered once daily for 21 days by Western blotting analysis; assay type: functional, organism-based; details: dose 15-30 mg/kg, time 21.0 day
MGC-803 [10] = experiment: Antiinvasive activity against human MGC-803 cells assessed as reduction in number of cells in membrane incubated for 48 hrs by trans well assay; assay type: functional, cell-based; details: dose 5-15 nM, DDE = dose-dependent effect
DU-145 = experiment: Antiproliferative activity against human DU-145 cells assessed as reduction in cell viability incubated for 48 hrs by MTT assay; assay type: functional, cell-based; details: DU-145, 48 h
MGC-803 [11] = experiment: Downregulation of cdc2 phosphorylation at Thr14 residue in human MGC-803 cells at 5 to 15 nM incubated for 48 hrs; assay type: functional, cell-based; details: dose 5-15 nM
MGC-803 [12] = experiment: Induction of apoptosis in human MGC-803 cells assessed as cell rounding at 5 to 15 nM incubated for 48 hrs by bright field imaging analysis; assay type: functional, cell-based; details: dose 5-15 nM
HGC-27 [13] = experiment: Antiproliferative activity against human HGC-27 cells assessed as reduction in cell viability incubated for 48 hrs by MTT assay; assay type: functional, cell-based; details: HGC-27, 48 h
MGC-803 [14] = experiment: Induction of apoptosis in human MGC-803 cells assessed as decrease in cIAP-1 level; assay type: functional, cell-based; details: dose 5-15 nM, DDE = dose-dependent effect
SK-N-SH = experiment: Antiproliferative activity against human SK-N-SH cells assessed as reduction in cell viability incubated for 48 hrs by MTT assay; assay type: functional, cell-based
Tubulin (Homo sapiens) [15] = target: T1, Tubulin (Homo sapiens) (UniProt P68371+Q9H4B7+P0DPH7+P68366+Q13509+Q71U36+P04350+Q3ZCM7+P07437+P68363+Q9BQE3+Q6PEY2+Q13885+Q9BVA1+Q9BUF5); experiment: Disruption of microtubule network in human HGC-27 cells assessed as cytoskeleton disruption at 10 to 30 nM measured after 48 hrs by DAPI staining based fluorescence microscopic analysis; assay type: cell-based; details: dose 10-30 nM
Tubulin (Sus scrofa) = Tubulin (Sus scrofa) (UniProt P02554+P02550); experiment: Inhibition of porcine brain tubulin polymerization assessed as reduction in tubulin polymerization level by measuring relative fluorescence intensity at 3 umol/l by fluorescence based assay; assay type: tissue-based; details: dose 3.0 µmol/L
Chain of Tubulin (Sus scrofa) (P02550 whole entry, looked up): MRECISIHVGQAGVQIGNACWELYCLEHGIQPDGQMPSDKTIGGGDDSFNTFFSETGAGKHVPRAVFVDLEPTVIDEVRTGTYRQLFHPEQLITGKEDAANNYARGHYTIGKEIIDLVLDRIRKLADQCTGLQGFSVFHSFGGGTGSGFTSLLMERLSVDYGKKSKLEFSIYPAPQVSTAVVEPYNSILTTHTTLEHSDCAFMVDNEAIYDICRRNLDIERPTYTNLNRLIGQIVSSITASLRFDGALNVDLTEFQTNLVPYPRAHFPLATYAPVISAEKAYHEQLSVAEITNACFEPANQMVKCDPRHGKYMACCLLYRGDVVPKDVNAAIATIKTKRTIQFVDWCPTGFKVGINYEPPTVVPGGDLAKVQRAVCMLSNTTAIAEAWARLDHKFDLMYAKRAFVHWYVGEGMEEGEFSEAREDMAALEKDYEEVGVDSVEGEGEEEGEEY
Chain of Tubulin (Sus scrofa) (P02554 whole entry, looked up): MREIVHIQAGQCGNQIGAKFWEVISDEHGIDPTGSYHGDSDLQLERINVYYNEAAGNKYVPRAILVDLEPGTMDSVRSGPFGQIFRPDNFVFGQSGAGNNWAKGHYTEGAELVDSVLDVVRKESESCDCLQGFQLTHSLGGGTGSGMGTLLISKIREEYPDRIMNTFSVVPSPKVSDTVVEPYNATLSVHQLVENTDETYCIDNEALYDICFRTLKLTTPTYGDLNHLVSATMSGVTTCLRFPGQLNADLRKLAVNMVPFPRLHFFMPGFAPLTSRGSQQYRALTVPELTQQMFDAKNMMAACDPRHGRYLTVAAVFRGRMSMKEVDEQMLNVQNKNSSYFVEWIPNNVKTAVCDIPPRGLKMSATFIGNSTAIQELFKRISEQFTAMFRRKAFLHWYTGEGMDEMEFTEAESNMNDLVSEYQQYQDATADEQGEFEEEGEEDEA

Tubulin (Homo sapiens) [16] = target: T1, Tubulin (Homo sapiens); experiment: Disruption of microtubule network in human MGC-803 cells assessed as irregular form of filamentous microtubule structures at 5 to 15 nM measured after 48 hrs by DAPI staining based fluorescence microscopic analysis; assay type: cell-based; details: dose 5-15 nM
MGC-803 [17] = experiment: Induction of apoptosis in human MGC-803 cells assessed as upregulation of DR5 level; assay type: functional, cell-based; details: dose 5-15 nM, DDE = dose-dependent effect
MGC-803 [18] = experiment: Induction of apoptosis in human MGC-803 cells assessed as nuclear concentration at 5 to 15 nM incubated for 48 hrs by DAPI staining based analysis; assay type: functional, cell-based; details: dose 5-15 nM
MGC-803 [19] = experiment: Induction of apoptosis in human MGC-803 cells assessed as upregulation of cleavage caspase 8 level; assay type: functional, cell-based; details: dose 5-15 nM, DDE = dose-dependent effect
Tubulin = Tubulin (Sus scrofa, UniProt P02554+P02550); experiment: Inhibition of porcine brain tubulin polymerization by fluorescence based assay; assay type: tissue-based
Tubulin (Homo sapiens) [20] = target: T1, Tubulin (Homo sapiens); experiment: Disruption of microtubule network in human MGC-803 cells assessed as incomplete mitosis at 5 to 15 nM measured after 48 hrs by DAPI staining based fluorescence microscopic analysis; assay type: cell-based; details: dose 5-15 nM
MGC-803 [21] = experiment: Induction of cell cycle arrest in human MGC-803 cells assessed as accumulation of cells at G2/M phase at 15 nM incubated for 48 hrs by propidium iodide staining based flow cytometry analysis (reference value: 24%); assay type: functional
SGC-7901 = experiment: Antiproliferative activity against human SGC-7901 cells assessed as reduction in cell viability incubated for 48 hrs by MTT assay; assay type: functional, cell-based; details: SGC-7901, 48 h
HGC-27 [22] = experiment: Downregulation of ATF4 expression in human HGC-27 cells incubated for 48 hrs; assay type: functional, cell-based; details: dose 10-30 nM, DDE = dose-dependent effect
HGC-27 [23] = experiment: Downregulation of vimentin expression in human HGC-27 cells incubated for 48 hrs; assay type: functional, cell-based; details: dose 10-30 nM, DDE = dose-dependent effect
MGC-803 [24] = experiment: Inhibition of p38 signalling pathway in human MGC-803 cells assessed as reduction in downstream substrate MAPKAPK2 phosphorylation at 5 to 15 nM incubated for 48 hrs; assay type: cell-based; details: dose 5-15 nM
HGC-27 [25] = experiment: Downregulation of phosphorylated ATF-2 expression in human HGC-27 cells incubated for 48 hrs; assay type: functional, cell-based; details: dose 10-30 nM, DDE = dose-dependent effect
HGC-27 [26] = experiment: Downregulation of FoxO3a expression in human HGC-27 cells incubated for 48 hrs; assay type: functional, cell-based; details: dose 10-30 nM, DDE = dose-dependent effect
MGC-803 [27] = experiment: Induction of apoptosis in human MGC-803 cells assessed as decrease in Bcl-2 level; assay type: functional, cell-based; details: dose 5-15 nM, DDE = dose-dependent effect
HGC-27 [28] = experiment: Induction of apoptosis in human HGC-27 cells assessed as increase in cleavage caspase 7 level; assay type: functional, cell-based; details: dose 10-30 nM, DDE = dose-dependent effect
TE-1 = experiment: Antiproliferative activity against human TE-1 cells assessed as reduction in cell viability incubated for 48 hrs by MTT assay; assay type: functional, cell-based; details: TE-1, 48 h
[29] = Toxicity in BALB/c nude mouse xenografted with human MGC-803 cells assessed as pathological changes in spleen at 15 to 30 mg/kg, ip administered once daily for 21 days by Hematoxyin-eosin staining based analysis; assay type: organism-based; details: in vivo, 504 h, dose 15-30 mg/kg, time 21 day
MGC-803 [30] = experiment: Inhibition of ERK signalling pathway in human MGC-803 cells assessed as reduction in downstream substrate MSK1 phosphorylation at 5 to 15 nM incubated for 48 hrs; assay type: cell-based; details: dose 5-15 nM
HGC-27 [31] = experiment: Inhibition of ERK signalling pathway in human HGC-27 cells assessed as reduction in downstream substrate p90RSK phosphorylation at 10 to 30 nM incubated for 48 hrs; assay type: cell-based; details: dose 10-30 nM

SMILES: CN(c1ccc2c(ccn2C)c1)c1cc(=O)oc2ccccc12
- IC50 (MGC-803 [1]; Homo sapiens, MGC-803, 48 h): 11 nM
- IC50 (MGC-803 [1]; mgc-803): 11.5 nM
- IC50 (EC9706): 21.8 nM
- Activity (HGC-27 [2]): Dde
- Activity (MGC-803 [3]): Dde
- Activity [4]: 23.6%
- Activity [5]: 7.2%
- Activity (Mus musculus [6]): Active
- inhibition [7]: Active
- Activity (MGC-803 [8]): Active
- Activity (Mus musculus [9]): Active
- Activity (MGC-803 [10]): Dde
- IC50 (DU-145): 74 nM
- Activity (MGC-803 [11]): Active
- Activity (MGC-803 [12]): Active
- IC50 (HGC-27 [13]): 23.8 nM
- Activity (MGC-803 [14]): Dde
- IC50 (SK-N-SH): 59.6 nM
- Activity (Tubulin (Homo sapiens) [15]): Active
- inhibition (Tubulin (Sus scrofa)): Active
- Activity (Tubulin (Homo sapiens) [16]): Active
- Activity (MGC-803 [17]): Dde
- Activity (MGC-803 [18]): Active
- Activity (MGC-803 [19]): Dde
- IC50 (Tubulin): 2460 nM
- Activity (Tubulin (Homo sapiens) [20]): Active
- Activity (MGC-803 [21]): 53%
- IC50 (SGC-7901): 52.3 nM
- Activity (HGC-27 [22]): Dde
- Activity (HGC-27 [23]): Dde
- inhibition (MGC-803 [24]): Active
- Activity (HGC-27 [25]): Dde
- Activity (HGC-27 [26]): Dde
- Activity (MGC-803 [27]): Dde
- Activity (HGC-27 [28]): Dde
- IC50 (TE-1): 489 nM
- Activity [29]: Non-Toxic
- inhibition (MGC-803 [30]): Active
- inhibition (HGC-27 [31]): Active
